Read-outs that look alike come from different tables or passages of the source.

From patent US20240336625A1, “SULFONIMIDAMDE COMPOUNDS AND USES THEREOF” (Genentech, Inc., priority 2021, published 2024) come the findings set out here.

The nature of data set [1]: Rat Pharmacokinetic (PK) Studies. Format: in vivo, Sprague-Dawley rats. Conditions: male, Sprague-Dawley, plasma; for bioavailability: 1 mg/kg PO vs 0.5 mg/kg IV cassette dose. As for the experimental part: Studies were performed at WuXi AppTech Co., Ltd (Shanghai, P.R. China). Food and water were available ad libitum except for animals that were dosed oral doses in pharmacokinetic (PK) studies, which were fasted overnight before dosing of test compounds. Six male Sprague-Dawley rats, aged 6-9 weeks with body weight of 200-300 g were obtained from Vital River Laboratory Animal Technology Co., Ltd., Beijing, P.R. China and were randomly allocated to two dose groups (3 rats were used for the IV group and 3 rats for the PO group). Animals in Group 1 were given a single IV bolus cassette dose of 0.5 mg/kg of test compounds at a dose volume of 1 mL/kg, formulated in DMSO/PEG400/Water (10/60/30). Animals in Group 2 were given a 1 mg/kg PO cassette dose of test compounds at a dose volume of 1 mL/kg, formulated in 0.5% Methyl cellulose/0.2% Tween 80 (MCT) as a suspension. Blood samples were collected via catheter at the femoral artery into tubes containing K2EDTA as an anticoagulant. Both groups were sampled at 0.033, 0.083, 0.25, 0.5, 1, 2, 4, 8 and 24 hours post-dose for blood. All samples were stored at −80° C. until analysis. The concentration of test compounds in each blood or plasma sample was determined by LC-MS/MS analysis.
PK parameters were calculated by noncompartmental methods as described in Gibaldi and Perrier (1982) using Phoenix™ WinNonlin (Certara, Princeton, NJ) version 8.3.4.295. Parameters are presented as mean±SD. Bioavailability (F) was determined by dividing the dose-normalized area under the plasma concentration-time curve from time 0 extrapolated to infinity (AUCinf) for each animals dosed orally by the dose-normalized mean AUCinf determined from the animals dosed intravenously.

The test system of data set [2] is NLRP3 inflammasome pathway. Kind of data set: Human Whole Blood Assay (IL-1β release, LPS + ATP). Format: cell-based. Conditions: read-out: HWB IC90. The procedure: The ability of selected compounds to inhibit IL-1beta production in human blood was assessed in a human whole blood assay with lipopolysaccharide.
Fresh human whole blood (HWB) was obtained from healthy donors. […] At the end of stimulation, the plates were centrifuged 2 min×3000 rpm, and supernatant transferred into fresh plates and stored at −80° C. until IL-1β analysis. IL-1b levels were measured using electrochemiluminescence immunoassay with an anti-IL-1b antibody as a primary detection agent.

The next data set has as its target T1, hPXR nuclear receptor (Homo sapiens, UniProt O75469).
T1 construct: expressed in transfected cells
T1 sequence (O75469 1-434): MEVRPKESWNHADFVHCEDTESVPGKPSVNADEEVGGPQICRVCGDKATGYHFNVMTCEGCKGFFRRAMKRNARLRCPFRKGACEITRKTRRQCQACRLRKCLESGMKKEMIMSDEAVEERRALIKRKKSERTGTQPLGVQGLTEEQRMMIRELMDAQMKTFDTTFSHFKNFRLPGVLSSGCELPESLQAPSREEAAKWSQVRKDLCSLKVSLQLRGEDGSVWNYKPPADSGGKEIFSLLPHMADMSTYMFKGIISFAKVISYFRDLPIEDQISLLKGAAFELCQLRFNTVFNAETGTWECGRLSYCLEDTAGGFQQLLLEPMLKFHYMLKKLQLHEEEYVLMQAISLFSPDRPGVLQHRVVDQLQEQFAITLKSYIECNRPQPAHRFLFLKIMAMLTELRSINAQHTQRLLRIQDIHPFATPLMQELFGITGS
Kind of data set: PXR Activation Assay. The settings on record: relative to positive control (rifampicin). Format: cell-based. The procedure: Hepatoma cells either expressing an endogenous human […] or transfected with the hPXR nuclear receptor and the corresponding response elements were seeded in a 96-well plate. Twenty-four hours after seeding, the cells were treated with six distinct concentrations of test compounds in duplicate wells, and cells then returned to the incubator for an additional 24 h. At the end of this incubation period, the number of viable cells/well was determined using Promega's Cell Titer Fluor cytotoxicity assay. Following this assay, Promega's ONE-Glo was added to the same wells and reporter gene activity assessed.
Data processed using MS-Excel was provided as the mean (n=2) of the fold receptor activation relative to vehicle-treated cells at each of the six different doses. All activation data was normalized to the number of viable cells/well. Results were also expressed as a percentage of the response given by the appropriate positive control (rifampicin) at a 10 μM dose. EC50 and Emax values were derived for positive controls using nonlinear regression of log dose-response curves.

Data set [3] relates to NLRP3 dependent inflammasome pathway. Kind of data set: THP-1 ASC-GFP Speck Assay. Format: cell-based. The settings on record: THP1-ASC-GFP; THP-1 ASC-GFP cells, LPS primed, 10 μM nigericin. The procedure: Cell Culture: THP-1 ASC-GFP cell line is purchased from Invivogen, San Diego, for inflammasome activation assay. THP-1 ASC-GFP cells stably express a 37.6 kDa ASC::GFP fusion protein that enables monitoring of spec formation by microscopy after activation of NLRP3 dependent inflammasome pathway. Cells are maintained at a density of 600,000 cells/mL in growth media consisting of RPMI 1640, 2 mM L-glutamine, 25 mM HEPES and 10% heat inactivated fetal bovine serum at 37° C. and 5% CO2. Cells are passaged every 3-4 days and used for assays for up to 20 passages.
NLRP3 inflammasome activation assay: THP-1 ASC-GFP cells are collected by centrifuging cells at 800 RPM for 5 minutes. Cell culture supernatant is removed and cells are resuspended in fresh media at density of 1×10^6 cells/mL in assay media consisting of RPMI 1640, 2 mM L-glutamine, 25 mM HEPES and 10% heat inactivated fetal bovine serum.
Phorbol 12-myristate 13-acetate (PMA) (Invivogen, tlrl-pma) is added to the cell suspension at a final concentration of 500 ng/ml and mixed thoroughly. 40,000 cells are added per well of a 384 well plate and differentiated into macrophages overnight at 37° C. and 5% CO2. […]
Imaging ASC-GFP specks: THP-1 ASC-GFP cells are imaged in 488 and Hoechst channels. […] Percentage of cells with a spec is calculated by dividing the number of GFP positive spots by total number of cells.

Setting [4] is: read-out: Rat Half Life (converted).
Setting [5] is: Homo sapiens, LPS 200 ng/mL, ATP 1.75 mM, IL-1β.

For orientation: half-life means how long it takes for the measured level to halve. For orientation: IC90 means the point of the concentration-response curve where the effect stands at 90%. Take `CNC1COc2c(S(N)(=O)=NC(=O)Nc3c4c(c(F)c5c3CC5)CC4)cnn2C1` (stereo not shown) [XO]: in data set [1], the bioavailability is 32%. The half-life is 1.3 h in data set [1] (setting [4]) and below 1 h in data set [1] (read-out: half life). The 90% effect concentration (IC90) in data set [2] (setting [5]) amounted to 110 nM. The “% PXR activation @ 10 μM” value at hPXR nuclear receptor amounted to 3.3%.

As to `C[C@@H]1COc2c(S(N)(=O)=NC(=O)Nc3c4c(cc5c3CCC5)CCC4)cnn2C1` (single isomer, unassigned) [XG], the bioavailability in data set [1] is 28%. For the same compound, the IC90 in data set [2] (setting [5]) stood at 770 nM. In addition, the “% PXR activation @ 10 μM” value at hPXR nuclear receptor is 25%.

A word on the IC50: it is the point on the concentration scale where inhibition reaches its midpoint. Low readings indicate greater potency in that assay, high ones weaker potency in that assay. Consider `C[C@]1(CO)Cn2ncc([S@](N)(=O)=NC(=O)Nc3c4c(c(F)c5c3CC5)CC4)c2O1` (single isomer, unassigned) [Compound G], for which half-maximal inhibition in data set [3] (IC50) was put at 1.1 nM.

Consider `C[C@]1(CO)Cn2ncc([S@](N)(=O)=NC(=O)Nc3c4c(cc5c3CC5)CC4)c2O1` [Compound A, (R,2R)-2-(hydroxymethyl)-2-methyl-N-(tricyclo[6.2.0.0^3,6]deca-1,3(6),7-trien-2-ylcarbamoyl)-2,3-dihydropyrazolo[5,1-b]oxazole-7-sulfonimidamide], for which, in data set [3], half-maximal inhibition (IC50) was put at 0.98 nM.

As for `NS(=O)(=NC(=O)Nc1c2c(cc3c1CC3)CCC2)c1cnn2c1OCCC2` (stereo not shown) [XC], the IC90 in data set [2] (setting [5]) amounted to 3400 nM. Further, the “% PXR activation @ 10 μM” value on hPXR nuclear receptor is listed as 26%.

As for `CC1(C)COc2c(S(N)(=O)=NC(=O)Nc3c4c(cc5c3CC5)CC4)cnn2C1` (stereo not shown) [XE], the bioavailability in data set [1] turned out to be 126%. Besides, the IC90 in data set [2] (setting [5]) was 520 nM. Also, the “% PXR activation @ 10 μM” value on hPXR nuclear receptor was 63%.

As to `CC1(C)Cn2ncc(S(N)(=O)=NC(=O)Nc3c4c(cc5c3CCC5)CCC4)c2O1` (stereo not shown) [XB], the bioavailability in data set [1] turned out to be 91%. Also, the half-life in data set [1] (setting [4]) is 0.87 h. Also, the IC90 in data set [2] (setting [5]) was 290 nM. The “% PXR activation @ 10 μM” value on hPXR nuclear receptor turned out to be 74%.

Turning to `CC1(CO)COc2c(S(N)(=O)=NC(=O)Nc3c4c(cc5c3CCC5)CCC4)cnn2C1` (single isomer, unassigned) [XJ], the IC90 in data set [2] (setting [5]) came to 700 nM. Moreover, at hPXR nuclear receptor, the “% PXR activation @ 10 μM” value is listed as 2.4%.

Turning to `CC1(C)Cn2ncc(S(N)(=O)=NC(=O)Nc3c4c(cc5c3CC5)CCC4)c2O1` (stereo not shown) [XI], the bioavailability in data set [1] amounted to 39%. Besides, the IC90 in data set [2] (setting [5]) turned out to be 240 nM. Moreover, the “% PXR activation @ 10 μM” value on hPXR nuclear receptor is 90%.

As for `COC1CN(C2COc3c(S(N)(=O)=NC(=O)Nc4c5c(cc6c4CC6)CC5)cnn3C2)C1` (stereo not shown) [XP], the bioavailability in data set [1] is 33%. Further, in data set [1] (setting [4]), the half-life is 1.9 h. Further, in data set [2] (setting [5]), the IC90 stood at 130 nM.

With `NS(=O)(=NC(=O)Nc1c2c(cc3c1CCC3)CCC2)c1cnn2c1OC(CO)C2` (stereo not shown) [XL], the IC90 in data set [2] (setting [5]) is 390 nM. The “% PXR activation @ 10 μM” value on hPXR nuclear receptor is on record as 3.7%.

Take `CC1(CO)COc2c(S(N)(=O)=NC(=O)Nc3c4c(cc5c3CCC5)CCC4)cnn2C1` (single isomer, unassigned) [XK]: the IC90 in data set [2] (LPS 200 ng/mL, ATP 1.75 mM, IL-1β) is 560 nM. For the same compound, the “% PXR activation @ 10 μM” value at hPXR nuclear receptor is listed as 4%.

For the compound `NS(=O)(=NC(=O)Nc1c2c(cc3c1CC3)CC2)c1cnn2c1OCC2` (stereo not shown) [XF], in data set [1], the bioavailability was 54%. In addition, in data set [2] (setting [5]), the IC90 worked out at 3300 nM. Also, on hPXR nuclear receptor, the “% PXR activation @ 10 μM” value is 15%.

In the case of `CC1(CO)Cn2ncc(S(N)(=O)=NC(=O)Nc3c4c(cc5c3CCC5)CCC4)c2O1` (stereo not shown) [XN], the bioavailability in data set [1] is 36%. In data set [1] (setting [4]), the half-life was 1.2 h. Moreover, the “% PXR activation @ 10 μM” value on hPXR nuclear receptor came to 6.2%.

`C[C@]1(CO)Cn2ncc([S@](N)(=O)=NC(=O)Nc3c4c(c(F)c5c3CC5)CC4)c2O1` [Compound 6, (R,2R)-N′-((7-fluorotricyclo[6.2.0.0^3,6]deca-1,3(6),7-trien-2-yl)carbamoyl)-2-(hydroxymethyl)-2-methyl-2,3-dihydropyrazolo[5,1-b]oxazole-7-sulfonimidamide]: the bioavailability in data set [1] is 48%. In addition, the half-life in data set [1] (setting [4]) is 1.8 h; in data set [1] (read-out: half life), above 1.5 h. The figures for the concentration for an effect of 90% (IC90) in data set [2] (setting [5]) and in data set [2] (Homo sapiens) were 55 nM and below 100 nM, respectively.

With `CC1(C)Cn2ncc(S(N)(=O)=NC(=O)Nc3c4c(cc5c3CC5)CC4)c2O1` (stereo not shown) [XH], the bioavailability in data set [1] was 85%. Further, in data set [1] (setting [4]), the half-life is 1.9 h. In addition, in data set [2] (setting [5]), the IC90 was determined as 130 nM. For the same compound, the “% PXR activation @ 10 μM” value at hPXR nuclear receptor worked out at 81%.

As to `CC1(C)COc2c(S(N)(=O)=NC(=O)Nc3c4c(cc5c3CCC5)CCC4)cnn2C1` (stereo not shown) [XA], in data set [1], the bioavailability was 45%. The half-life in data set [1] (setting [4]) was 2 h. For the same compound, the IC90 in data set [2] (setting [5]) was 480 nM. Further, at hPXR nuclear receptor, the “% PXR activation @ 10 μM” value stood at 61%.

With `NS(=O)(=NC(=O)Nc1c2c(cc3c1CCC3)CCC2)c1cnn2c1OCCC2` (stereo not shown) [XD], the IC90 in data set [2] (setting [5]) worked out at 1700 nM. The “% PXR activation @ 10 μM” value on hPXR nuclear receptor is listed as 22%.

Consider `C[C@]1(CO)Cn2ncc([S@](N)(=O)=NC(=O)Nc3c4c(cc5c3CC5)CC4)c2O1` [Compound 2, (R,2R)-2-(hydroxymethyl)-2-methyl-N′-(tricyclo[6.2.0.0^3,6]deca-1,3(6), 7-trien-2-ylcarbamoyl)-2,3-dihydropyrazolo[5,1-b]oxazole-7-sulfonimidamide], for which, in data set [1], the bioavailability was 53%. For the same compound, in data set [1] (setting [4]), the half-life is above 2 h. Further, the IC90 is 43 nM in data set [2] (setting [5]) and below 100 nM in data set [2] (Homo sapiens).

Take `NS(=O)(=NC(=O)Nc1c2c(cc3c1CCC3)CCC2)c1cnn2c1OCC(O)C2` (stereo not shown) [XM]: the IC90 in data set [2] (setting [5]) was 2400 nM. In addition, the “% PXR activation @ 10 μM” value at hPXR nuclear receptor came out at 2.4%.
